The text below walks through data of BindingDB's records for doi:10.1016/s0960-894x(00)00166-9 (Universidad Complutense, 2000).

This test addresses 5-hydroxytryptamine receptor 7 (Rattus norvegicus, UniProt P32305). Description: Binding affinity towards 5-hydroxytryptamine 7 receptor.

Chain of 5-hydroxytryptamine receptor 7 (P32305 whole entry): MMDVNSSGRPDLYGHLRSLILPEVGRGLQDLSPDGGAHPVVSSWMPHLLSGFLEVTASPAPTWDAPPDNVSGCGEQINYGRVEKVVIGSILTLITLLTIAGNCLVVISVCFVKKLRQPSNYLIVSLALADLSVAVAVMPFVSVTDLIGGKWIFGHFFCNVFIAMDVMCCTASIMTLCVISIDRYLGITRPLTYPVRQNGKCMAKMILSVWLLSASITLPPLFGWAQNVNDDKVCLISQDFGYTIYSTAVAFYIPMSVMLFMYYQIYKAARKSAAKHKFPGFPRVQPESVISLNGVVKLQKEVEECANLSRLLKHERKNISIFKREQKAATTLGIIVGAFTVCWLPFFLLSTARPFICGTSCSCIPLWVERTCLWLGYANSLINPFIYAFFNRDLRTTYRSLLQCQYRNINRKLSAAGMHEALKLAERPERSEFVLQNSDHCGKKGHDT

For orientation: Ki means the equilibrium dissociation constant of an inhibitor or competing ligand from its target. The molecule `CC(C)(C)[C@]1(O)CCN2C[C@H]3c4ccccc4CCc4cccc(c43)[C@@H]2C1` registered a Ki of 63 nM.
